From patent US9212168B2 (priority 2011, dated 2015) come the findings set out here.

A value given as a limit tells only on which side of the number the result lay.

One assay has as its target HCV genotype 1b replicon. Nature of the assay: HCV genotype 1b replicon assay (Renilla luciferase readout). The assay is classed as cell-based, hepatitis C virus. As to conditions: for Genotype 1b: HCV genotype 1b replicon; for EC50: Hepatitis C virus, read-out: Genotype 1b. In a few lines: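 Reported as pEC50 derived from a 4-parameter fit of Renilla luciferase activity against concentration. Replicon cells (APC144, Huh7 background) were exposed to compound for 48 h in G418-free medium with final 0.5% DMSO, after seeding at 10,000 cells/well and 4 h adherence.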
Background: A replicon is a self-replicating genome or part of one, used to study replication in cells.

A further assay has as its system HCV genotype 1a replicon. Nature of the assay: HCV genotype 1a replicon assay (NS3 protease activity readout). The class given is cell-based, hepatitis C virus. To be noted: for Genotype 1a: HCV genotype 1a replicon; for EC50: Hepatitis C virus, read-out: Genotype 1a, HCV genotype 1a replicon. In a few lines:
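EC50 values came from a 4-parameter robust fit of fluorescence (ex 340, em 509 nm) produced by NS3-specific protease in lysates, assayed with 15 μM FRET substrate for 20 min at 37° C, after 48 or 72 hours of compound exposure (0.5% DMSO) of Huh7.5-derived APC89 genotype 1a replicon cells.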

For the molecule `COC(=O)N[C@H](C(=O)N1C[C@@H](C)C[C@H]1c1nc(-c2ccc(-c3cc(F)c(NC(=O)c4ccc(N5C[C@H](C)N(C(=O)[C@H]6CC6(C)C)C[C@H]5C)nc4)cc3C(F)(F)F)cc2)c[nH]1)C(C)C` [Example 1-7], the “Genotype 1b” value on HCV genotype 1b replicon is on record as “D (D represents pEC50>10 (EC50<0.1 nM))”. The “Genotype 1a” value in the assay with HCV genotype 1a replicon was “D (D represents pEC50>10 (EC50<0.1 nM))”.
With `CNC(=O)N1CCN(c2ccc(C(=O)Nc3ccc(-c4ccc(-c5c[nH]c([C@@H]6C[C@H](N(C)C)CN6C(=O)[C@@H](NC(=O)OC)C(C)C)n5)cc4)c(C)c3)cn2)[C@H](C)C1` [Example 2-5], the “Genotype 1b” value at HCV genotype 1b replicon is on record as “D (D represents pEC50>10 (EC50<0.1 nM))”. Besides, the “Genotype 1a” value in the assay on HCV genotype 1a replicon was “C (C represents pEC50 between and 9 and about 10, (EC50 between 1 nM and 0.1 nM))”.
As to `COC(=O)N[C@H](C(=O)N1C[C@@H](C)C[C@H]1c1nc(-c2ccc(-c3ccc(C(=O)Nc4ccc(N5CCN(C(=O)[C@]6(C)CCCN6C(=O)OC(C)C)C[C@H]5C)nc4)cc3OC(F)(F)F)cc2)c[nH]1)C(C)C` [Example 4-5], the “Genotype 1b” value on HCV genotype 1b replicon is reported as “D (D represents pEC50>10 (EC50<0.1 nM))”. In the assay on HCV genotype 1a replicon, the “Genotype 1a” value is “D (D represents pEC50>10 (EC50<0.1 nM))”.
Turning to `COC(=O)N[C@H](C(=O)N1C[C@@H](C)C[C@H]1c1nc(-c2ccc(-c3cc(Cl)c(NC(=O)c4ccc(N5CCN(C(=O)C(C)(C)C)C[C@H]5C)nc4)cc3OC(F)(F)F)cc2)c(F)[nH]1)C(C)C` [Example 5-8], the EC50 with HCV genotype 1b replicon and in the assay with HCV genotype 1a replicon was less than 0.1 nM in each case.
`COC(=O)N[C@H](C(=O)N1C[C@@H](C#N)C[C@H]1c1nc(-c2ccc(-c3cc(Cl)c(NC(=O)c4ccc(N5CCN(C(=O)C(C)(C)C)C[C@H]5C)nc4)cc3OC(F)(F)F)cc2)c[nH]1)C(C)C` [Example 15-11]: the EC50 with HCV genotype 1b replicon and in the assay with HCV genotype 1a replicon was less than 0.1 nM in each case.
`CNC(=O)N1C[C@@H](C)N(c2ccc(C(=O)Nc3cc(OC(F)(F)F)c(-c4ccc(-c5c[nH]c([C@@H]6C[C@H](C)CN6C(=O)[C@@H](c6ccccc6)N6CCCCC6)n5)cc4)cc3Cl)cn2)C[C@@H]1C` [Example 5-9]: the EC50 in the assay with HCV genotype 1b replicon and in the assay with HCV genotype 1a replicon was less than 0.1 nM each time.
Consider `COC(=O)N[C@H](C(=O)N1[C@H](c2nc(-c3ccc(-c4ccc(C(=O)Nc5ccc(N6CCN(C(=O)C7CC7(C)C)C[C@H]6C)nc5)cc4OC(F)(F)F)cc3)c[nH]2)C[C@@H]2CCCC[C@@H]21)C(C)C` (stereo partly shown) [Example 6-12], for which the EC50 with HCV genotype 1b replicon was less than 0.1 nM; in the assay with HCV genotype 1a replicon, 0.1 to 1 nM.
In the same order, the values of `COC(=O)N[C@H](C(=O)N1C[C@@H](SC)C[C@H]1c1nc(-c2ccc(-c3cc(Cl)c(NC(=O)c4ccc(N5CCN(C(=O)[C@H]6CC6(C)C)C[C@H]5C)nc4)cc3OC(F)(F)F)cc2)c[nH]1)C(C)C` [Example 5-4] are less than 0.1 nM and less than 0.1 nM.
For `COC(=O)N[C@H](C(=O)N1C[C@@H](C)C[C@H]1c1nc(-c2ccc(-c3ccc(C(=O)Nc4ccc(N5C[C@H](C)N(C(=O)[C@H]6CCCN6C(=O)NC(C)C)C[C@H]5C)nc4)cc3OC(F)(F)F)cc2)c[nH]1)C(C)C` [Example 4-20], the “Genotype 1b” value at HCV genotype 1b replicon is given as “D (D represents pEC50>10 (EC50<0.1 nM))”. Further, the “Genotype 1a” value in the assay with HCV genotype 1a replicon is “C (C represents pEC50 between and 9 and about 10, (EC50 between 1 nM and 0.1 nM))”.
With `COC(=O)N[C@H](C(=O)N1C[C@@H](C)C[C@H]1c1nc(-c2ccc(-c3ccc(C(=O)Nc4ccc(N5C[C@H](C)N(C(=O)C6CC6)C[C@H]5C)nc4)cc3OC(F)(F)F)cc2)c[nH]1)C(C)C` [Example 4-16], the “Genotype 1b” value at HCV genotype 1b replicon was “D (D represents pEC50>10 (EC50<0.1 nM))”. Also, the “Genotype 1a” value with HCV genotype 1a replicon is “C (C represents pEC50 between and 9 and about 10, (EC50 between 1 nM and 0.1 nM))”.
For `COC(=O)N[C@H](C(=O)N1C[C@@H](C)C[C@H]1c1nc(-c2ccc(-c3cc(Cl)c(NC(=O)c4ccc(N5CCN(C(=O)N(C)OC)C[C@H]5C)nc4)cc3OC(F)(F)F)cc2)c[nH]1)C(C)C` [Example 12-1], the EC50 in the assay with HCV genotype 1b replicon and in the assay with HCV genotype 1a replicon was less than 0.1 nM each time.
As to `COC(=O)N[C@H](C(=O)N1C[C@@H](OC)C[C@H]1c1nc(-c2ccc(-c3cc(Cl)c(NC(=O)c4ccc(N5CCN(C(=O)[C@H]6CC6(C)C)C[C@H]5C)nc4)cc3OC(F)(F)F)cc2)c[nH]1)C1CCOCC1` [Example 28-11], the “Genotype 1b” value at HCV genotype 1b replicon is “D (D represents pEC50>10 (EC50<0.1 nM))”. Besides, in the assay on HCV genotype 1a replicon, the “Genotype 1a” value was “D (D represents pEC50>10 (EC50<0.1 nM))”.
`COC(=O)N[C@H](C(=O)N1C[C@@H](C)C[C@H]1c1nc(-c2ccc(-c3cc(Cl)c(NC(=O)c4ccc(N5CCN(C(=O)c6ncc[nH]6)C[C@H]5C)nc4)cc3OC(F)(F)F)cc2)c[nH]1)C(C)C` [Example 1-35]: the “Genotype 1b” value at HCV genotype 1b replicon is reported as “D (D represents pEC50>10 (EC50<0.1 nM))”. Also, the “Genotype 1a” value in the assay with HCV genotype 1a replicon is given as “D (D represents pEC50>10 (EC50<0.1 nM))”.
With `COC(=O)NC(C(=O)N1CC(OC)CC1c1nc(-c2ccc(-c3cc(F)c(NC(=O)c4ccc(N5CCN(C(=O)C(C)(C)C)CC5C)nc4)cc3OC(F)(F)F)cc2)c[nH]1)C(C)O` (stereo not shown) [Example 16-4], at HCV genotype 1b replicon, the “Genotype 1b” value is recorded as “D (D represents pEC50>10 (EC50<0.1 nM))”. Further, the “Genotype 1a” value in the assay with HCV genotype 1a replicon was “D (D represents pEC50>10 (EC50<0.1 nM))”.
Consider `COC(=O)N[C@H](C(=O)N1C[C@@H](C)C[C@H]1c1nc(-c2ccc(-c3cc(Cl)c(NC(=O)c4ccc(N5CCN(C(=O)c6nccn6C)C[C@H]5C)nc4)cc3OC(F)(F)F)cc2)c[nH]1)C(C)C` [Example 1-36], for which, at HCV genotype 1b replicon, the “Genotype 1b” value is “D (D represents pEC50>10 (EC50<0.1 nM))”. Moreover, in the assay with HCV genotype 1a replicon, the “Genotype 1a” value was “D (D represents pEC50>10 (EC50<0.1 nM))”.
On to `COC(=O)N[C@H](C(=O)N1C[C@@H](C)C[C@H]1c1nc(-c2ccc(-c3cc(F)c(NC(=O)c4ccc(N5C[C@H](C)N(C(=O)[C@H]6CC6(C)C)C[C@H]5C)nc4)cc3OC(F)(F)F)cc2)c[nH]1)C(C)C` [Example 1-13], for which the “Genotype 1b” value at HCV genotype 1b replicon is listed as “D (D represents pEC50>10 (EC50<0.1 nM))”. Besides, the “Genotype 1a” value in the assay with HCV genotype 1a replicon was “D (D represents pEC50>10 (EC50<0.1 nM))”.
For the molecule `COC(=O)N[C@H](C(=O)N1C[C@@H](C)C[C@H]1c1nc(-c2ccc(-c3cc(F)c(NC(=O)c4ccc(N5CCN(C(=O)C(C)(C)C)C[C@H]5C)nc4)cc3OC(F)(F)F)cc2)c[nH]1)[C@H](C)O` [Example 13-20], the EC50 in the assay with HCV genotype 1b replicon and in the assay with HCV genotype 1a replicon was less than 0.1 nM each time.
`COC(=O)N[C@H](C(=O)N1C[C@@H](C)C[C@H]1c1nc(-c2ccc(-c3ccc(C(=O)Nc4ccc(N5C[C@H](C)N(C(=O)[C@@]6(O)CC6(C)C)C[C@H]5C)nc4)cc3OC(F)(F)F)cc2)c(Cl)[nH]1)C(C)C` [Example 4-37]: the “Genotype 1b” value at HCV genotype 1b replicon is reported as “D (D represents pEC50>10 (EC50<0.1 nM))”. For the same molecule, the “Genotype 1a” value with HCV genotype 1a replicon is “D (D represents pEC50>10 (EC50<0.1 nM))”.
`COC(=O)N[C@H](C(=O)N1C[C@@H](C)C[C@H]1c1nc(-c2ccc(-c3cc(Cl)c(NC(=O)c4ccc(N5CCN(C(=O)C(C)(C)C)[C@@H](C)C5)nc4)cc3OC(F)(F)F)cc2)c[nH]1)C1CCOCC1` [Example 20-5]: the “Genotype 1b” value at HCV genotype 1b replicon is reported as “D (D represents pEC50>10 (EC50<0.1 nM))”. For the same molecule, the “Genotype 1a” value in the assay on HCV genotype 1a replicon is listed as “D (D represents pEC50>10 (EC50<0.1 nM))”.
On to `COCC(C)(C)C(=O)N1CCN(c2ccc(C(=O)Nc3cc(OC(F)(F)F)c(-c4ccc(-c5c[nH]c([C@@H]6C[C@H](C)CN6C(=O)[C@@H](NC(=O)OC)C(C)C)n5)cc4)cc3Cl)cn2)[C@H](C)C1` [Example 12-32], for which the EC50 in the assay on HCV genotype 1b replicon and in the assay on HCV genotype 1a replicon was less than 0.1 nM in each case.
